Reference: ChEMBL document CHEMBL1821627, “Medicinal chemistry as a conduit for the modulation of quorum sensing” (J Med Chem, 2010)
Each block holds one compound with its values, some of them ahead of it. Where a SMILES comes first, the peptide text is derived from it. Bridges are numbered along the chain shown (N, C = ends). [ ]: non-standard residue; d: D form. NMeL = CN[C@@H](CC(C)C)C(=O)O; Dap = NC[C@H](N)C(=O)O; Ava = NCCCCC(=O)O; Mpa = O=C(O)CCS

Experiments:
[1] = target: T1, Transcriptional activator protein LasR (Pseudomonas aeruginosa (strain ATCC 15692 / PAO1 / 1C / PRS 101 / LMG12228), UniProt P25084); assay: Agonist activity at Pseudomonas aeruginosa LasR cognate receptor expressed in Escherichia coli harboring pKDT17 assessed as activation of lasB expression by LacZ reporter gene assay; assay type: functional
T1 sequence (P25084 whole entry): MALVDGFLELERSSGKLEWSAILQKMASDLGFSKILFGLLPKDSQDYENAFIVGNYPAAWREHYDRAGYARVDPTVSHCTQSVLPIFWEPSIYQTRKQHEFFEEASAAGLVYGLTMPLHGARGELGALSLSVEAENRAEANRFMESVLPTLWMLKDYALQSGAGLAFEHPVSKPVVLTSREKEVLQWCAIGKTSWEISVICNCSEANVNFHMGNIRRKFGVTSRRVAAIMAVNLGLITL

[2] = target: T2, Autoinducer 1 sensor kinase/phosphatase LuxN (Vibrio harveyi, UniProt P0C5S6); assay: Inhibition of LuxN-dependent bioluminescence in Vibrio harveyi
T2 sequence (P0C5S6 whole entry): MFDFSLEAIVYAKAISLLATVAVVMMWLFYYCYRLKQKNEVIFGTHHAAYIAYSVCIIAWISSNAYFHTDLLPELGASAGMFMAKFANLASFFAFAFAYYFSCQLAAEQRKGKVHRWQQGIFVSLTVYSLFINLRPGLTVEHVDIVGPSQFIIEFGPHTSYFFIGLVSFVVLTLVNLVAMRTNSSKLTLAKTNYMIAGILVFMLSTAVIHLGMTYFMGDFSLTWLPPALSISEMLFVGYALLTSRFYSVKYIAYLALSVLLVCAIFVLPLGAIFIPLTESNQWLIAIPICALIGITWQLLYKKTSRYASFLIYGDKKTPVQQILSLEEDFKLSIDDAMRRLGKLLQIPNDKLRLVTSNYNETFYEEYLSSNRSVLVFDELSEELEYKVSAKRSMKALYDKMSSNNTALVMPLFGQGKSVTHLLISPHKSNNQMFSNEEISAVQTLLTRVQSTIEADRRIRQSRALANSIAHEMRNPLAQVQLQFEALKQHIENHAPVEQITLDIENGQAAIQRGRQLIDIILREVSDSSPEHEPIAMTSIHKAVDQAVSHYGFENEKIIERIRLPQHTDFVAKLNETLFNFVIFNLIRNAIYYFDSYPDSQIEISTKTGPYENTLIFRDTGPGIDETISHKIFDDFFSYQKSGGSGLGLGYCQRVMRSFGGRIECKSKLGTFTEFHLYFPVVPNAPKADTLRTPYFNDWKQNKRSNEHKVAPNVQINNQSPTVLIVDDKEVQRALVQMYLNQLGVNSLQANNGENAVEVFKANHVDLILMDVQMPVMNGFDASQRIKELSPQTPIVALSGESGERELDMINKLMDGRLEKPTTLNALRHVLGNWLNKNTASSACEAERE

[3] = Inhibition of Staphylococcus aureus Quorum sensing system AgrC-II activation after 60 to 90 minutes by beta-lactamase reporter assay
[4] = Inhibition of Staphylococcus aureus Quorum sensing system AgrC-I activation after 60 to 90 minutes by beta-lactamase reporter assay
[5] = Inhibition of quorum sensing regulated bioluminescence in Vibrio harveyi
Aliivibrio fischeri = assay: Induction of quorum sensing regulated bioluminescence in Vibrio fischeri by luminescence assay relative to natural autoinducer
[6] = Induction of quorum sensing activity in Pseudomonas aeruginosa assessed as maximal induction of LasR-dependent yellow fluorescent protein emission by luminescence assay
[7] = Inhibition of quorum sensing Salmonella Typhimurium by beta-galactosidase transcription assay in presence of 50 uM DPD; parameters: species or system Salmonella enterica subsp. enterica serovar Typhimurium
[8] = tested on: Salmonella enterica subsp. enterica serovar Typhimurium; assay: Ratio of compound IC50 to DPD IC50 for Salmonella Typhimurium quorum sensing system
[9] = target: T1, Transcriptional activator protein LasR; assay: Antagonist activity at Pseudomonas aeruginosa LasR receptor assessed as inhibition of bioluminescence by reporter gene assay; assay type: functional
[10] = Inhibition of quorum sensing in Pseudomonas aeruginosa assessed as inhibition of LasR-dependent yellow fluorescent protein emission by luminescence assay
[11] = tested on: Chromobacterium violaceum; assay: In vivo inhibition of violacein production in Chromobacterium violaceum; assay type: functional, organism-based
Vibrio harveyi = assay: Induction of quorum sensing regulated bioluminescence in Vibrio harveyi by luminescence assay

Structure (SMILES): CCCCCCCC(=O)CC(=O)N[C@H]1CCOC1=O
EC50 [1]: 15 nM

Structure (SMILES): COc1ccc(CNC(=O)C(NS(=O)(=O)c2ccc3nc(C)sc3c2)C(C)C)cc1 (configuration not stated)
IC50 [2]: 2900 nM

Structure (SMILES): CC[C@H](C)[C@@H]1NC(=O)[C@H](Cc2ccccc2)NC(=O)[C@H](C)NC(=O)[C@@H](NC(=O)[C@@H](NC(=O)[C@H](CO)NC(=O)[C@@H](N)Cc2ccc(O)cc2)[C@@H](C)O)CSC(=O)[C@H](CSC)NC1=O (H-YSTCAFIC(Me); thioester 4-C)
IC50 ([3]; read-out: IC50): 4 nM | IC50 ([4]; read-out: IC50): 21 nM

Structure (SMILES): CC(C)(c1ccccc1)c1ccc(OCC(=O)NC2CCCC2)cc1
IC50 [2]: 2400 nM

Structure (SMILES): O=C(c1ccc(Cl)cc1)c1ccc(S(=O)(=O)c2ccc(Cl)cc2)cc1
IC50 [2]: 2600 nM

Structure (SMILES): Cc1cc(Br)cc(CNC(=O)c2ccccc2Cl)c1OC(=O)c1ccc(Cl)cc1Cl
EC50 [6]: 920 nM

Structure (SMILES): O=C(CCCCCCCCCCN=C=S)CC(=O)N[C@H]1CCOC1=O
IC50 [9]: 45200 nM

Structure (SMILES): CC(=O)C(=O)[C@@H](O)CO
EC50 (Vibrio harveyi): 3000 nM

Structure (SMILES): CCCCCCCCCCCC(=O)N[C@H]1CCOC1=O
EC50 [1]: 33 nM

Structure (SMILES): O=C(CCCCCCCCCN=C=S)CC(=O)N[C@H]1CCOC1=O
IC50 [9]: 113000 nM

Structure (SMILES): N#Cc1ccc(B(O)O)cc1
IC50 [5]: 6000 nM

Structure (SMILES): CC(C)OC(=O)CSc1nc2ccccc2[nH]1
IC50 [2]: 62300 nM

Structure (SMILES): CCCCCCCCCC(=O)CC(=O)N[C@H]1CCSC1=O
EC50 [1]: 7 nM

Structure (SMILES): CCCCCC(=O)CC(=O)N[C@H]1CCOC1=O
EC50 [1]: 150 nM | Activity (Aliivibrio fischeri): 50%

Structure (SMILES): O=C(Nc1ccccc1NC(=O)c1cccc(Cl)c1)c1cccc(Cl)c1
IC50 [10]: 50000 nM

Structure (SMILES): O=C(Oc1c(Br)cc(Br)cc1CNC(=O)c1ccccc1Cl)c1ccc(F)cc1
EC50 [6]: 240 nM

Structure (SMILES): O=C(CCCCCCCCCNC(=O)CBr)CC(=O)N[C@H]1CCOC1=O
IC50 [9]: 100000 nM

Results, then the compound that gave them:

IC50 ([3]; read-out: IC50): 167000 nM | IC50 ([4]; read-out: IC50): 1390 nM
Structure (SMILES): CC(=O)N[C@H]1CNC(=O)[C@H](Cc2ccccc2)NC(=O)[C@H](CC(C)C)NC(=O)[C@H](CO)NC(=O)[C@H](CO)NC1=O (Ac-[Dap]SSLF; lactam 1-C)

IC50 [5]: 35000 nM
Structure (SMILES): NC(=S)CS(=O)(=O)c1cccs1

Activity (Aliivibrio fischeri): 10%
Structure (SMILES): CC(=O)CCCC(=O)N[C@H]1CCOC1=O

IC50 [7]: 5040 nM | Ratio IC50 [8]: < 10
Structure (SMILES): CCCCC(=O)C(=O)[C@@H](O)CO

IC50 ([3]; read-out: IC50): 507000 nM | IC50 ([4]; read-out: IC50): 1140 nM
Structure (SMILES): CC(=O)N[C@H]1CSC(=O)[C@H](Cc2ccccc2)NC(=O)[C@H](CC(C)C)NC(=O)CCCCNC1=O (Ac-C[Ava]LF; thioester 1-C)

IC50 [5]: 138000 nM
Structure (SMILES): CCN(CC)C(=S)CS(=O)(=O)c1cccs1

IC50 [5]: 4000 nM
Structure (SMILES): OB(O)c1ccc(OCc2ccccc2)cc1

IC50 [10]: 30 nM
Structure (SMILES): CCCCCCCCCCCCn1nnc(CC(=O)O)n1

IC50 [3]: Not Active | IC50 [4]: Not Active
Structure (SMILES): CC(=O)N[C@H]1CSC(=O)[C@H](Cc2ccccc2)NC(=O)[C@H](CC(C)C)N(C)C(=O)[C@H](CO)NC(=O)[C@H](CO)NC1=O (Ac-CSS[NMeL]F; thioester 1-C)

IC50 [11]: 723 nM
Structure (SMILES): O=C(CCCOc1ccc(Cl)cc1)NC1CCSC1=O (configuration not stated)

IC50 [11]: 1200 nM
Structure (SMILES): Cc1cc(Cl)ccc1OCCCC(=O)NC1CCSC1=O (configuration not stated)

IC50 [5]: > 400000 nM
Structure (SMILES): NC(=O)CS(=O)(=O)c1cccs1

IC50 ([3]; read-out: IC50): 47300 nM | IC50 ([4]; read-out: IC50): 1680 nM
Structure (SMILES): CC(C)C[C@@H]1NC(=O)[C@H](CO)NC(=O)[C@H](CO)NC(=O)CCSC(=O)[C@H](Cc2ccccc2)NC1=O ([Mpa]SSLF; thioester 1-C)

IC50 [5]: 4000 nM
Structure (SMILES): Cc1ccc(B(O)O)c(F)c1

IC50 [5]: 2000 nM
Structure (SMILES): Oc1cccc(O)c1O [PYROGALLOL]

IC50 [7]: 24900 nM
Structure (SMILES): CCCCCCC(=O)C(=O)[C@@H](O)CO

IC50 [5]: > 400000 nM
Structure (SMILES): CCOC(=O)CS(=O)(=O)c1ccc(-c2cncc3ccccc23)cc1

IC50 [10]: 10000 nM
Structure (SMILES): CCCCCCCCCNC(=O)CC(=O)c1ccccc1
